According to patent publication US12606529B2, “Sulfur and amide tropolone inhibitors of nucleotidyl transferases and uses therefor” (Saint Louis University, priority 2019, dated 2026):
Values after ≈ are worked out from the molar mass of the structure shown.

Assays:
human RNaseH1 = biological target: T1, human RNaseH1 (Homo sapiens, UniProt O60930); experiment: Biochemical inhibition of human RNaseH1 activity; conditions: Table 2 amides; read-out: HuRH1 IC50
T1 sequence (O60930 1-286): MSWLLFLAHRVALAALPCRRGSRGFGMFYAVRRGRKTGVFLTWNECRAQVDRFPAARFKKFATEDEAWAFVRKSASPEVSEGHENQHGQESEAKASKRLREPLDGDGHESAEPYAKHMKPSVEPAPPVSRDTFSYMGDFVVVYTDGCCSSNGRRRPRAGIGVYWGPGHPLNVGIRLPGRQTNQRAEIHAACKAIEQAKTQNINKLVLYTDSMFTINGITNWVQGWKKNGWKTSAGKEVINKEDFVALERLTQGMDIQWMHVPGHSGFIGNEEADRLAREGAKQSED
Method: Biochemical inhibition of human RNaseH1 activity. Quantitative inhibition of the human RNaseH1 in the biochemical assays was assessed using a molecular beacon assay as described previously (Edwards et al., 2017). Recombinant human RNaseH 1 (0.3 μg) was incubated with 100 nM RNA:DNA substrate, 50 mM HEPES pH 8.0, 100 mM NaCl, 2 mM Tris(2-carboxyethyl)phosphine hydrochloride (TCEP), 0.05% Tween20, 5 units of RNaseOut, test compounds (0 to 500 μM), and 5% DMSO in a 100 μL reaction volume. The substrate was formed by annealing a complementary RNA oligonucleotide to a hairpin DNA oligonucleotide to hold the hairpin DNA oligonucleotide in an open conformation. The DNA oligonucleotide has a 5′ fluorescein reporter and a 3′ black hole quencher. When the RNA is degraded from the substrate the DNA oligonucleotide closes to form a hairpin structure, decreasing in signal intensity. Reactions were initiated with 5 mM MgCl2 and fluorescence was read using a Synergy HTS multi-mode plate reader at 37° C. Alternatively, the HBV RNaseH version used was MBP-HRHgtCΔ5, a genotype C isolate which lacks the C-terminal 35 amino acids of the HBV RNaseH domain that are predicted to be unstructured. Quantitative inhibition of the human RNaseH1 in biochemical assays was assessed using a FRET-based RNaseH assay under conditions previously reported for an RNaseH molecular beacon assay (Edwards et al., 2017). […] Cleavage of the RNA strand released the fluorescein from quenching, increasing fluorescence. Reactions were monitored for 90 min at 37° C. in a plate reader and initial reaction rates were calculated. Reactions contained escalating concentrations of the compounds.

HSV-1 = experiment: Anti-HSV-1 replication assay (Vero cells, plaque titer); type: cell-based, herpes simplex virus 1; conditions: Human alphaherpesvirus 1, Vero, Table 2 amides; for log reduction at 5 µM: compound at 5 μM, read-out: HSV-1 suppression 5 μM; for log reduction at 5 µM / log reduction at 1 µM: values separated by / are repeats; for log reduction at 1 µM: compound at 1 μM, read-out: HSV-1 suppression 1 μM; for log reduction at 0.33 µM: compound at 0.33 μM, read-out: HSV-1 suppression 0.33 μM
[1] = tested on: C. neoformans var. grubii, KN99; experiment: C. neoformans growth inhibition assay (limiting dilution); type: cell-based, Cryptococcus neoformans; conditions: Cryptococcus neoformans, 48 h, Table 2 amides; 48 h, 35° C., tested 0.19 to 50 μM; read-out: C. neoformans MIC80
Method: Cell types used for C. neoformans studies. All inhibition assays were performed with C. neoformans var. grubii, KN99 (serotype A, MAT). Two clinical strains of C. neoformans var. grubii, serotype A, were provided by Tamara Doering and Andre Spec. […] Cells were diluted to OD650 0.001 in YNB-02 02 (0.67% yeast nitrogen base, 0.2% dextrose, pH 7.0 with 50 mM MOPs)+1% DMSO prior to addition to the plates for the inhibition assays.
C. neoformans growth inhibition assays. Compounds were tested in a limiting dilution assay with a starting optical density (at 650 nm) of 0.001 in YNB-02 plus 1% DMSO. Cells plus compound were incubated in 96-well clear round bottom plates covered with a Breath-easy® membrane without shaking for 48 hours at 35° C. Before measuring cell density, plates were shaken on a microtiter plate shaker at 900 rpm for 3 minutes to resuspend cells and optical density was measured at 650 nm. […] Each assay was done in triplicate and all values are the average of two or more independent assays. The data are presented as the average cell density as a percent of DMSO-only treated cells. MICs are reported as the minimal concentration needed to inhibit 80% of C. neoformans growth relative to vehicle-treated controls.

in vitro = conditions: human, HepDES19 cells
Method: Cells used for toxicity and HBV studies. […] Cells were maintained in Dulbecco's modified Eagle's medium (DMEM)/F12 media supplemented with 10% fetal bovine serum (FBS) and 1% penicillin/streptomycin (P/S) with 1 μg/mL tetracycline. Synchronized expression of HBV pgRNA was induced by removing tetracycline from the culture medium.
Cytotoxicity Assays. Qualitative assessments of cytotoxicity were done visually by inspecting the cells in the primary screening assays. […] The next day the compounds were added at 0.78 to 100 μM in a final concentration of 1% (v/v) DMSO, and the cells were incubated for 24 hours under conditions identical to those employed for the viral replication inhibition assays. Mitochondrial toxicity was measured by incubating the cells with 0.25 mg/mL thiazolyl blue tetrazolium bromide (MTT, SigmaAldrich Chemical Co.), the cultures were incubated for 60 mM, metabolites were solubilized in acidic isopropanol, and absorbance was read at 570 nm. CC50 values were calculated by non-linear curve fitting using GraphPad Prism using the three-parameter variable-response log(inhibitor)-versus-response algorithm with the bottom value set to zero.

| Structure (SMILES) | IC50 (human RNaseH1) [µM] | log reduction at 5 µM (HSV-1) | MIC80 [1] [µM] | CC50 at 24 h (in vitro; CC50 (μM), Table 2 amides, MTT) [µM] | log reduction at 1 µM (HSV-1) | log reduction at 0.33 µM (HSV-1) | CC50 at 24 h (in vitro; CC50) [µM] |
| --- | --- | --- | --- | --- | --- | --- | --- |
| Cc1cc(O)c(=O)c(O)cc1C(=O)NC(CCC(=O)OC(C)(C)C)C(=O)OC(C)(C)C (stereo not drawn) [compound 867] | 675 ± 563 | 3.49 | 4.3 (≈ 1.88 µg/mL) | 5.2 ± 1.3 |  |  |  |
| Cc1cc(O)c(=O)c(O)cc1C(=O)NC(CCCCNC(=O)OC(C)(C)C)C(=O)OC(C)(C)C (stereo not drawn) [compound 869] | 602 ± 273 | -0.147 | 9 (≈ 4.33 µg/mL) | 14.6 ± 3.4 |  |  |  |
| Cc1cc(O)c(=O)c(O)cc1C(=O)NCC1COC(C)(C)O1 (stereo not drawn) [compound 808] | 71.9 ± 12 |  | 9 (≈ 2.78 µg/mL) | 14.9 ± 8.6 |  |  |  |
| Cc1ccc(CNC(=O)c2cc(O)c(=O)c(O)cc2C)c(C)c1 [compound 809] | 19.6 ± 20 | 4.69 | 3.3 (≈ 1.03 µg/mL) | 5.8 ± 6.5 | 0.0278 |  |  |
| Cc1cc(O)c(=O)c(O)cc1C(=O)NCC1CCOC1 (stereo not drawn) [compound 1018] | 129 ± 123 |  | 50 (≈ 14 µg/mL) | 41.2 ± 33.4 |  |  |  |
| Cc1cc(O)c(=O)c(O)cc1C(=O)Nc1cccc(Cc2ccccc2)c1 [compound 799] | 713 ± 496 | 3.88 | 2 (≈ 0.723 µg/mL) | 5.3 ± 3.1 | 0.411 | 0.0848 |  |
| Cc1cc(O)c(=O)c(O)cc1C(=O)N1CCN(C(=O)OC(C)(C)C)CC1 [compound 873] | 74.7 ± 23.1 | 0.2 | 20 (≈ 7.29 µg/mL) | 19.5 ± 8.7 | -0.148 |  |  |
| Cc1cc(O)c(=O)c(O)cc1C(=O)Nc1ccccc1 [compound 389] | 78.4 ± 47.2 | 0.43 | 5.3 (≈ 1.44 µg/mL) | 21.2 ± 9.5 |  |  | > 20 |
| COC(=O)[C@H](Cc1c[nH]c2ccccc12)NC(=O)c1cc(O)c(=O)c(O)cc1C [compound 797] | 44 ± 27.1 |  | 9 (≈ 3.57 µg/mL) | 13.9 ± 13.3 |  |  |  |
| Cc1cc(O)c(=O)c(O)cc1C(=O)Nc1ccc(Cc2ccccc2)cc1 [compound 798] | 467 | 4.39 | 1.2 (≈ 0.434 µg/mL) | 3.3 ± 1.8 | 2.32 | -0.0103 | 3.3 |
| Cc1cc(O)c(=O)c(O)cc1C(=O)NCC1CCCCN1C(=O)OC(C)(C)C (stereo not drawn) [compound 810] | 41.5 ± 7.2 |  | 4.5 (≈ 1.77 µg/mL) | 10.9 ± 11.2 |  |  |  |
| Cc1cc(O)c(=O)c(O)cc1C(=O)NCc1ccc(Oc2ccccc2)cc1 [compound 807] | 799 ± 403 | 4.54 | 4.5 (≈ 1.7 µg/mL) | 6 ± 6.5 | -0.11 | 0.0714 |  |
| Cc1cc(O)c(=O)c(O)cc1C(=O)NCc1cccs1 [compound 801] | 833 ± 289 |  | 50 (≈ 14.6 µg/mL) | 61.1 ± 22.8 |  |  |  |
| Cc1cc(O)c(=O)c(O)cc1C(=O)N1CCS(=O)(=O)C1 [compound 709] | 84.8 ± 6.7 | -0.27 | 50 (≈ 15 µg/mL) | 19.5 ± 6.7 |  |  |  |
| Cc1cc(O)c(=O)c(O)cc1C(=O)NCC1CCN(C(=O)OC(C)(C)C)CC1 [compound 805] | 77 ± 30.8 |  | 9 (≈ 3.53 µg/mL) | 19.5 ± 10.8 |  |  |  |
| Cc1cc(O)c(=O)c(O)cc1C(=O)N1CCN(C(=O)C2CCCCC2)CC1 [compound 872] | 93 ± 53.3 | 0.643 | 20 (≈ 7.49 µg/mL) | 14.4 ± 3.7 | -0.158 |  |  |
| CCCCNC(=O)c1cc(O)c(=O)c(O)cc1C [compound 1039] | 219 ± 87.6 |  | 12 (≈ 3.02 µg/mL) | 8.7 ± 2.8 |  |  |  |
| Cc1cc(O)c(=O)c(O)cc1C(=O)NCc1ccc(N2CCCC2)cc1 [compound 1019] | 383 ± 471 |  | 4.5 (≈ 1.59 µg/mL) | 10.7 ± 6 |  |  |  |
